Columns and labels:
Assay in all cases: saturation transfer difference
Format in all cases: binding
[1] = target: T1, sucrose phosphorylase (LmSPase) (Leuconostoc mesenteroides, UniProt Q59495)
T1 sequence (Q59495 1-490): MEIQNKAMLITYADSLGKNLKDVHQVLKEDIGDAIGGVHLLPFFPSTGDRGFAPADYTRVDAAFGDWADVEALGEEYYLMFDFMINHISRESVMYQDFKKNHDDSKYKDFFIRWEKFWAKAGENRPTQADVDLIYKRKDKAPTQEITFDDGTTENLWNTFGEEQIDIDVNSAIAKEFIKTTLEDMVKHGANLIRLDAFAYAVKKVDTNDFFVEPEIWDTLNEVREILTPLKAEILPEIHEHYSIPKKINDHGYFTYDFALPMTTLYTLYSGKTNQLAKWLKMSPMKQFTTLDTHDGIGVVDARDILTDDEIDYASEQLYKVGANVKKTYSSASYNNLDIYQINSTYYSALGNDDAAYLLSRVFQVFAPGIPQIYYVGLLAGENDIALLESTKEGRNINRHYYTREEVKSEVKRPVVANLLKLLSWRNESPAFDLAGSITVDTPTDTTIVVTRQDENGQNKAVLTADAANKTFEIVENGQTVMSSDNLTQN

[2] = target: T2, sucrose phosphorylase (LmSPase) (Leuconostoc mesenteroides, UniProt Q59495, F52A/E237A)
T2 sequence (Q59495 1-490 F52A/E237A): T1 sequence (Q59495 1-490)

[3] = target: T3, sucrose phosphorylase (LmSPase) (Leuconostoc mesenteroides, UniProt Q59495, F52A/D196A)
T3 sequence (Q59495 1-490 F52A/D196A): T1 sequence (Q59495 1-490)

[4] = target: T4, sucrose phosphorylase (LmSPase) (Leuconostoc mesenteroides, UniProt Q59495, F52A)
T4 sequence (Q59495 1-490 F52A): T1 sequence (Q59495 1-490)

[5] = target: T5, sucrose phosphorylase (LmSPase) (Leuconostoc mesenteroides, UniProt Q59495, F52A/D295A)
T5 sequence (Q59495 1-490 F52A/D295A): T1 sequence (Q59495 1-490)

Q: With `O=P(O)(O)O[C@H]1O[C@H](CO)[C@@H](O)[C@H](O)[C@H]1O` [αGlc 1-P, α-D-glucose 1-phosphate] as the compound, how does the “saturation transfer difference (STD) NMR, 7 μM enzyme, 5.0 mM ligand” value [1] read?
A: The value was “Binding of αGlc 1-P to LmSPase resulted in a characteristic pattern of STD effects”.

Q: What about the “saturation transfer difference (STD) NMR” value [2] of the same compound?
A: The value was “suggesting that binding of αGlc 1-P did take place in each double mutant”.

Q: What about the “saturation transfer difference (STD) NMR” value [3] of the same compound?
A: The value was “Incubation of either double mutant with αGlc 1-P gave rise to distinct STD effects in the ligand”.

Q: And the “saturation transfer difference (STD) NMR” value [4]?
A: Its value is “STD effects in αGlc 1-P were considerably weaker in F52A mutant than in wild-type enzyme”.

Q: And the “saturation transfer difference (STD) NMR; steady-state kinetics” value [5]?
A: The value was “STD signal intensities were higher on binding of αGlc 1-P to F52A_D295A mutant as compared to wild-type”.

— paper PMC4554294 (Biochemistry and Biophysics Reports, 2015)
